Literature values as cited in patent publication US20130259998A1, “FOODSTUFF PRESERVING COMPOSITION AND USE THEREOF” (NIACET B.V., priority 2012, published 2013).

Conditions: ingredient as such

| Structure (SMILES) | pH as such |
| --- | --- |
| CC(=O)O.CC(=O)O.NC(=N\CCCCCC/N=C(N)/N=C(\N)Nc1ccc(Cl)cc1)/N=C(\N)Nc1ccc(Cl)cc1 [diacetate] | 4.5-5.0 |
| CC(=O)[O-].[Na+] [sodium acetate] | 8.9 |
| CC(O)C(=O)[O-].[Na+] (stereo not drawn) [sodium lactate] | 6.3 |
